How the values were obtained:
bastard dog = test: Increasing effect of cerebral blood flow; assay type: in vivo; conditions: profunda femoris vein
Protocol: Thus, a bastard dog (male, 12-20 kg of body weight) was fixed in a prone (position) and was anesthetized with 20 mg/kg of pentobarbital sodium and made forced breathing to kept the frequency of respiration at 20 times/minutes. Then, the skull was bared and the surface bone was removed to expose the venous sinus by using grinder and the venous blood was took out from the venas which was cannulizated. The amount of venous blood flow was measured by using an electromagnetic blood flow meter and next measured by using drop-counter by measuring the number of drops of blood per 10 seconds.
The increasing effect of cerebral blood flow was calculated by comparing the number of blood drops in 30 seconds at the peak of increasement shown before and after the administration of compound to be tested. The each of compounds to be tested was dissolved in dimethylformamide and diluted with physiological saline solution and administered through a cannule being inserted into the profunda femoris vein.

[1] = molecular target: T1, cyclic AMP phosphodiesterase (Oryctolagus cuniculus, UniProt G1ST54); test: Obstructive action against cyclic AMP phosphodiesterase; assay type: biochemical; conditions: rabbit platelet enzyme, 30° C., 20 minutes
T1 construct: the supernatant was collected to use it as a crude enzyme solution; from tissue; host or cells: rabbit platelets (from platelet-rich plasma)
T1 sequence (G1ST54 1-1128): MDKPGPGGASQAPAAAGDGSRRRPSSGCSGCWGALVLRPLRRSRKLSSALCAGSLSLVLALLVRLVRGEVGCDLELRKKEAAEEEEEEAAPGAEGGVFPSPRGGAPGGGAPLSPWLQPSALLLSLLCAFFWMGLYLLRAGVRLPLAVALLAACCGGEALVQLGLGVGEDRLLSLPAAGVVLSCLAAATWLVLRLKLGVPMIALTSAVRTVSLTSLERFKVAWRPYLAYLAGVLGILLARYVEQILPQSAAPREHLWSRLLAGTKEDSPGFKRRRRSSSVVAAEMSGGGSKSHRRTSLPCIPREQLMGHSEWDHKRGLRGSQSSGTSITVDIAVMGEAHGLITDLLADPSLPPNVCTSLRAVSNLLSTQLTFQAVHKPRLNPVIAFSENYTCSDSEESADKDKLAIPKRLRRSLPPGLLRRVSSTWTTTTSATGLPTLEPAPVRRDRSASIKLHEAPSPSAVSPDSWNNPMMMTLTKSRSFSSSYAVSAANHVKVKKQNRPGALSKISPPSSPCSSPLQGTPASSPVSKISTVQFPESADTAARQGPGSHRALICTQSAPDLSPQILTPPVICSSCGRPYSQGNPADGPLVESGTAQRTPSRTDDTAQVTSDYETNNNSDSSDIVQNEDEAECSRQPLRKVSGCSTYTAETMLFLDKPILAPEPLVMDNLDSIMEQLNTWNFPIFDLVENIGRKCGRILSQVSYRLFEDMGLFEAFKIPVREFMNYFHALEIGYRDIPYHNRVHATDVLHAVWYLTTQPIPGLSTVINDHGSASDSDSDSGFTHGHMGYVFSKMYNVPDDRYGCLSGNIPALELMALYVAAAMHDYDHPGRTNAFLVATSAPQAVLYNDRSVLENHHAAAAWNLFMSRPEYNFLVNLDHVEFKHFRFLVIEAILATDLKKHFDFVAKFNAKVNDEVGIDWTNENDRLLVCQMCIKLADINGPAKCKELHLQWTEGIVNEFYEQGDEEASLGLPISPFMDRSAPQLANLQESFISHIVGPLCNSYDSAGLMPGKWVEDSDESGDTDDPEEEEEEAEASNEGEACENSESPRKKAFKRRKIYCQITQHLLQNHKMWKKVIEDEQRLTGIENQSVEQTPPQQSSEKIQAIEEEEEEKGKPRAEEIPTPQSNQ
Protocol: That is, for determining the obstructive activity against cyclic AMP phosphodiesterase, 10 ml of a solution obtained by adding 1 mmol of MgCl2 into 50 mmol of tris-hydrochloric acid buffer with pH 7.4 was added to the platelets obtained by further centrifuging the above-said rabbit PRP at 3,000 r.p.m. for 10 minutes, and the suspended platelets were ground by a Teflon potter type homogenizer. This was followed by two times of freezing and thawing treatment and 300-second fracturing with 200 watt supersonic waves. After additional 60-minute centrifugation with 100,000 G, the supernatant was collected to use it as a crude enzyme solution.
10 Milliliters of this crude buffer solution was added to a 1.5×20 cm DEAE-cellulose column which has previously been buffered with 50 mM of tris-acetate buffer (pH 6.0), followed by washing and elution with 30 ml of 50 mM tris-acetate buffer, and this buffer solution was subjected to linear gradient elution with 0 to 0.5 moles of sodium acetate-tris-acetatebuffer (total amount of elute was 300 ml.). The flow rate was 0.5 ml/min, and 5 ml of each fraction was batched out. […] This fraction was used as cyclic AMP phosphodiesterase.
0.1 Milliliter of an aqueous solution of each test compound of a specified concentration was mixed with 40 mmol of tris-hydrochloric acid buffer (pH 8.0, containing 50 μg of cow serum albumin and 4 mmol of MgCl2) containing predetermined 1.0 μmol of cyclic AMP (tritium cyclic AMP), and 0.2 ml of this mixed solution was used as substrate solution.
0.2 Milliliter of the above-prepared cyclic AMP phosphodiesterase of a predetermined concentration was added to said substrate solution and the mixture was reacted at 30° C. for 20 minutes, producing tritium 5'-AMP from the tritium cyclic AMP.
The reaction system was then immersed in boiling water for 2 minutes to stop the reaction, and then this reaction solution was cooled in ice water and, for converting the produced tritium 5'-AMP into tritium adenosine, the solution was added with 0.05 ml (1 mg/ml) of snake poison as 5'-nucleotidase and reacted at 30° C. for 10 minutes. The whole amount of this reaction solution was then added to a cation exchange resin (AG 500 W×4, 200-400 meshes, manufactured by Bio-Rad Co., column size: 0.5×1.5 cm), and the produced tritium anodesine alone was allowed to combine, washed with 6 ml of distilled water and eluted with 1.5 ml of 3 N-ammonia water. The whole quantity of the elutant was added with 10 ml of a triton-toluene type scintillator and the produced tritium adenosine was measured by a liquid scintillation counter to determine the phosphodiesterase activity.
In this way, the phosphodiesterase activation value (Vs) of the test compounds of the respective concentrations was determined, and the phosphodiesterase obstruction rate (%) was determined from said activation value (Vs) and control value (Vc) (obtained from water not containing any test compound) from the following formula: [formula] Known 1-methyl-3-isobutylxanthine was used as control.

[2] = tested on: collagen-induced aggregation in rabbit platelet; test: Inhibition effect on collagen-induced aggregation in rabbit platelet; assay type: cell-based; conditions: Oryctolagus cuniculus, Platelet, read-out: Inhibition effect on collagen-induced aggregation; for inhibition at 10 µM: concentration of the test compound solution 10^-5 mole; for inhibition at 1 µM: concentration of the test compound solution 10^-6 mole
Protocol: (§1) The platelet aggregation inhibitory effect is measured by using AG-II aggregometer (manufactured by Bryston Manufacturing Co.). The blood sample used for the test is a 1/9 (by volume) mixture of sodium citrate and whole blood collected from rabbit. Said sample is subjected to 10-minute centrifugal separation at 1,000 r.p.m. to obtain a platelet rich plasma (PRP). The thus obtained PRP is separated, and the remaining blood sample is further subjected to 15-minute centrifugal separation at 3,000 r.p.m. to obtain a platelet poor plasma (PPP).
(§2) The number of platelets in the PRP is counted by the Brecher-Clonkite Method, and the PRP is diluted with the PPP to prepare a PRP sample with platelet concentration of 300,000/mm^3 for the adenosine diphosphate (ADP)-induced aggregation test. There is also prepared a PRP sample with platelet concentration of 450,000/mm^3 for the collagen-induced aggregation test.
(§3) 0.6 Milliliter of said PRP sample is added into 0.01 ml of a solution of a test compound of a predetermined concentration and the mixture is placed in a 37° C. thermostat for one minute. Then 0.07 ml of an ADP or collagen solution is added to the mixture. Transmittance of this mixture is determined and the change of transmittance is recorded by using the aggregometer at stirrer speed of 1,100 r.p.m. […] The ADP solution is adjusted to a concentration of 7.5×10^-5 M, and the collagen solution is prepared by triturating 100 mg of collagen with 5 ml of said buffer and the supernatant is used as collagen inducer. Acetylsalicylic acid is used as control for the ADP-induced aggregation test and the collagen-induced aggregation test, respectively. The platelet aggregation inhibitory effect is measured in terms of percent inhibition with respect to the aggregation rate of the controls. The aggregation rate is calculated from the following formula:
(§4) Aggregation rate=[(c-a)/(b-a)]×100
(§5) b: transmittance of PRP containing a test compound and an aggregation inducer

Acute Toxicity Test = conditions: mouse, in vivo; male mice, oral administration
Protocol: The test compounds were administered orally to the mice and LD50 (mg/kg) of the compounds was determined.

[3] = tested on: ADP-induced aggregation in rabbit platelet; test: Inhibition effect on ADP-induced aggregation in rabbit platelet; assay type: cell-based; conditions: Oryctolagus cuniculus, Platelet; for inhibition at 100 µM: concentration of the test compound solution 10^-4 mole; for inhibition at 10 µM: concentration of the test compound solution 10^-5 mole; for inhibition at 1 µM: concentration of the test compound solution 10^-6 mole
Protocol: as §1, §2, §3, §4, §5

[4] = read-out: Inhibition effect on ADP-induced aggregation

| Compound | IC50 [1] [nM] | inhibition at 10 µM [2] [%] | inhibition at 1 µM [2] [%] | LD50 (Acute Toxicity Test) [mg/kg] | inhibition at 100 µM [3] [%] | inhibition at 10 µM [3, 4] [%] | inhibition at 1 µM [3, 4] [%] | also measured |
| --- | --- | --- | --- | --- | --- | --- | --- | --- |
| 6-{3-[N-(2-Hydroxyethyl)-N-cyclooctylaminocarbonyl]propoxy}-3,4-dihydrocarbostyril [Example 5] |  |  |  |  |  |  |  | Increasing effect of cerebral blood flow (bastard dog; dosage 100 μg/kg): 43.5% |
| CC(C)Cn1c(=O)n(C)c(=O)c2[nH]cnc21 [1-Methyl-3-isobutylxanthine, 1-methyl-3-isobutylxanthine, reference compound] | 540 |  |  |  |  |  |  |  |
| CCCCN(CC1CCCCO1)C(=O)CCCCOc1ccc2c(c1)CCC(=O)N2 (stereo not drawn) [No. 12, 6-{4-[N-Butyl-N-(2-tetrahydropyranylmethyl)aminocarbonyl]butoxy}-3,4-dihydrocarbostyril] | 25 | 100 | 10.3 | > 1000 | 100 | 40.2 | 8.3 |  |
| CCN(C(=O)CCCOc1ccc2[nH]c(=O)ccc2c1)c1ccccn1 [No. 3, 6-{3-[N-Ethyl-N-(2-pyridyl)aminocarbonyl]propoxy}carbostyril] | 400 | 100 | 14 | > 1000 | 100 | 31 | 10 |  |
| O=C(OCCN(C(=O)CCCOc1ccc2[nH]c(=O)ccc2c1)C1CCCCC1)c1ccccc1 [No. 10, 6-{3-[N-(2-Benzoyloxyethyl)-N-cyclohexylaminocarbonyl]propoxy}carbostyril] | 12 | 100 | 100 | > 1000 | 100 | 80.7 | 42.6 | inhibition at 0.1 µM ([2]; concentration of the test compound solution 10^-7 mole): 56.7%; inhibition at 0.1 µM ([3]; concentration of the test compound solution 10^-7 mole, read-out: Inhibition effect on ADP-induced aggregation): 7.1% |
| COc1ccc(Cc2nccc3cc(OC)c(OC)cc23)cc1OC [Papaverin, papaverine, reference compound] |  |  |  |  |  |  |  | Increasing effect of cerebral blood flow (bastard dog; dosage 1,000 μg/kg): 86.0% |
| CN(Cc1ccco1)C(=O)CCCOc1ccc2[nH]c(=O)ccc2c1 [No. 4, 6-{3-[N-Methyl-N-(2-furylmethyl)aminocarbonyl]propoxy}carbostyril] | 600 | 35.8 | 4 | > 1000 | 85.7 | 13.7 |  | inhibition at 100 µM ([2]; concentration of the test compound solution 10^-4 mole): 92.5% |
| CC(=O)OC1CCC(N(C)C(=O)CCCOc2ccc3[nH]c(=O)ccc3c2)CC1 (stereo not drawn) [No. 26, 6-{3-[N--Methyl-N--(4-acetyloxycyclohexyl)aminocarbonyl]propoxy}carbostyril, reference compound] | 6.6 |  |  |  |  |  |  |  |
| 6-{4-[N-(2,3-Dihydroxypropyl)-N-cyclohexylaminocarbonyl]butoxy}carbostyril [Example 14] |  |  |  |  |  |  |  | Increasing effect of cerebral blood flow (bastard dog; dosage 100 μg/kg): 51.6% |
| O=C1CCc2cc(OCCCC(=O)N3CCN(Cc4ccccc4)CC3)ccc2N1 [No. 15, 6-[3-(4-Benzyl-1-piperazinylcarbonyl)propoxy]-3,4-dihydrocarbostyril] | 40 | 98.8 | 24.6 | > 1000 | 100 | 100 | 25.8 |  |
| 6-{4-[N-(2-Hydroxybutyl)-N-cyclohexylaminocarbonyl]butoxy}carbostyril [Example 13] |  |  |  |  |  |  |  | Increasing effect of cerebral blood flow (bastard dog; dosage 30 μg/kg): 98.9% |
| 6-{4-[N-(2-Hydroxybutyl)-N-cyclopentylaminocarbonyl]butoxy}-3,4-dihydrocarbostyril [Example 12] |  |  |  |  |  |  |  | Increasing effect of cerebral blood flow (bastard dog; dosage 300 μg/kg): 73.5% |
| 6-{3-[N-(4-Hydroxybutyl)-N-cyclohexylaminocarbonyl]propoxy}carbostyril [Example 7] |  |  |  |  |  |  |  | Increasing effect of cerebral blood flow (bastard dog; dosage 300 μg/kg): 80.2% |

Reference: patent US4435404A, “Carbostyril derivatives” (priority 1980, dated 1984)
